The target of series [1] is His-tagged human recombinant kinase full-length Akt1 (Homo sapiens (Human), UniProt P31749). Briefly: Akt1 kinase assay (Akt1 TR-FRET assay, Biological Assay 1.0). The class given is biochemical. Conditions: 10 μM ATP, 1 μM biotinylated peptide substrate, 60 min at 22° C. Put shortly:
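Insect-cell-expressed full-length His-Akt1 (~0.05 ng/μl) preincubated 15 min with compound, then reacted 60 min at 22 °C with 10 μM ATP and 1 μM biotinylated peptide (final), pH 7.5. Phosphopeptide detected by HTRF (665/620 nm ratio). Data normalised to no-inhibitor and no-enzyme controls.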

For series [2], the target named is His-tagged human recombinant kinase full-length Akt2 activated by PDK1 (Homo sapiens (Human), UniProt P31751). Briefly: Akt2 kinase assay (Akt2 TR-FRET assay, Biological Assay 2.0). In kind it is biochemical. As to conditions: 10 μM ATP, 1 μM biotinylated peptide substrate, 60 min at 22° C. In outline: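 Compound was pre-incubated with enzyme (~0.2 ng/µl final) for 15 min at 22 °C in Tris pH 7.5, 5 mM MgCl2, then reacted 60 min with 10 µM ATP and 1 µM biotinylated peptide. Phosphopeptide was detected by TR-FRET (665/622 nm ratio). Data were normalised to no-inhibitor (0%) and no-enzyme (100%) controls.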
A general note: TR-FRET usually uses a lanthanide donor and a delayed reading to cut background.

As usually defined, the melting point is the temperature of the solid-liquid transition. In general, IC50 refers to the concentration needed to halve the response being measured.

Sequence of His-tagged human recombinant kinase full-length Akt2 activated by PDK1 (P31751 whole entry): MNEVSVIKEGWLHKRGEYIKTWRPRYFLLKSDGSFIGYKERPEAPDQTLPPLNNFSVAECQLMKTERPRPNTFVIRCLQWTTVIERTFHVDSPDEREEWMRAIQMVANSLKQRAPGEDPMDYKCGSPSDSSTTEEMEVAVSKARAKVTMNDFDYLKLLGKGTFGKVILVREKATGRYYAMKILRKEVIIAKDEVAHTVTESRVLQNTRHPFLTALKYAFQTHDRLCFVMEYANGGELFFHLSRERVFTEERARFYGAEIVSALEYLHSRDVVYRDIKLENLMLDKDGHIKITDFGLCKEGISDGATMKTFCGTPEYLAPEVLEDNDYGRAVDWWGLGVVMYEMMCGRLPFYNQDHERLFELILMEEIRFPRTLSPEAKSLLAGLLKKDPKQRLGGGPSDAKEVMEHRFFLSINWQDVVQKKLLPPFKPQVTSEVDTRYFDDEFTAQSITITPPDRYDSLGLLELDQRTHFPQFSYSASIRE
Sequence of His-tagged human recombinant kinase full-length Akt1 (P31749 whole entry): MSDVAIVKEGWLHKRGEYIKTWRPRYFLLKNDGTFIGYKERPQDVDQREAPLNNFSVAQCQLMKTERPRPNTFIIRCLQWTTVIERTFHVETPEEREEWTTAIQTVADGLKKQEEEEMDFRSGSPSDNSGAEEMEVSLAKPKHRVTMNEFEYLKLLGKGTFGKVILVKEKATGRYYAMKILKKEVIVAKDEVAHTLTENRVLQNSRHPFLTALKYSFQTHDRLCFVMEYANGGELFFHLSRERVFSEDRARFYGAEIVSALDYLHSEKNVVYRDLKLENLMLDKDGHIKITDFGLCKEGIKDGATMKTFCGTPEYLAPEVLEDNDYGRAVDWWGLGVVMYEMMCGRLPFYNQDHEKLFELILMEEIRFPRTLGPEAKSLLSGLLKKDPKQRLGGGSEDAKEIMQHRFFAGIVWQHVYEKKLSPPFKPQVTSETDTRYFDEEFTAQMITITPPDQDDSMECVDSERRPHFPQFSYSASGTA

`Cc1nc2nc(-c3ccc(CN4CC(c5n[nH]c(-c6ccccn6)n5)C4)cc3)c(-c3ccccc3)c(NC(C)C)n2n1` [Example 45.2, isopropyl-(2-methyl-6-phenyl-5-{4-[3-(5-pyridin-2-yl-1H-[1,2,4]triazol-3-yl)-azetidin-1-ylmethyl]-phenyl}-[1,2,4]triazolo[1,5-a]pyrimidin-7-yl)-amine] returned a melting point of 176.8 °C.
On to `Cc1cn2cc(-c3ccccc3)c(-c3ccc(CN4CC(c5n[nH]c(-c6ccccn6)n5)C4)cc3)nc2n1` [Example 56.0, 2-methyl-6-phenyl-7-{4-{3-[5-(pyridine-2-yl)-1H-[1,2,4]triazole-3-yl)-azetidine-1-ylmethyl]-phenyl}-imidazo[1,2-a]pyrimidine], for which the IC50 in series [1] turned out to be 10 nM; in series [2], 47 nM.
Consider `Fc1ccc(-c2cn3ccnc3nc2-c2ccc(CN3CCC(c4n[nH]c(-c5cnccn5)n4)CC3)cc2)cc1` [Example 52.2, 6-(4-fluorophenyl)-7-{4-[4-(5-pyrazine-2-yl-1H-[1,2,4]triazole-3-yl]-piperidine-1-ylmethyl]-phenyl}-imidazo[1,2-a]pyrimidine], for which the IC50 came to 186 nM in series [1] and 1440 nM in series [2].
As for `Brc1cnc2nc(-c3ccc(CN4CC(c5n[nH]c(-c6ccccn6)n5)C4)cc3)c(-c3ccccc3)cn12` [Example 55.0, 3-bromo-6-phenyl-7-{4-{3-[5-(pyridine-2-yl)-1H-[1,2,4]triazole-3-yl)-azetidine-1-ylmethyl]-phenyl}-imidazo[1,2-a]pyrimidine], the IC50 in series [1] turned out to be 6 nM; in series [2] it was 14 nM.
For the molecule `CC(C)c1nc2nc(-c3ccc(CN4CCC(c5cnc6ccccc6n5)CC4)cc3)c(-c3ccccc3)cn2n1` [Example 30.0, 2-{1-[4-(2-isopropyl-6-phenyl-[1,2,4]triazolo[1,5-a]pyrimidin-5-yl)benzyl]-piperidine-4-yl}-quinoxaline], the IC50 in series [1] came out at 6700 nM; in series [2], 509 nM.
In the same order, the values of `COC(=O)c1cnn2cc(-c3c(F)cccc3F)c(-c3ccc(CN4CC(c5n[nH]c(-c6ccccn6)n5)C4)cc3)nc12` [Example 28.0, 6-(2,6-difluorophenyl)-5-(4-{3-[5-(pyridine-2-yl)-1H-[1,2,4]triazole-3-yl]-azetidine-1-ylmethyl}-phenyl)-pyrazolo[1,5-a]pyrimidine-3-carboxylic acid methyl ester] are 14 nM and 761 nM.
In the same order, the values of `OCc1cnn2cc(-c3c(F)cccc3F)c(-c3ccc(CN4CC(c5n[nH]c(-c6ccccn6)n5)C4)cc3)nc12` [Example 62.0, (6-(2,6-difluorophenyl)-5-{4-[3-[5-pyridine-2-yl-1H-[1,2,4]triazole-3-yl)-azetidine-1-ylmethyl]-phenyl}-pyrazolo[1,5-a]pyrimidin-3-yl)-methanol] are 55 nM and 801 nM.
In the same order, the values of `CSc1nc2nc(-c3ccc(CN4CC(c5n[nH]c(-c6cccc(C)n6)n5)C4)cc3)c(-c3ccccc3)cn2n1` [Example 71.0, 5-(4-{3-[5-(6-methyl-pyridin-2-yl)-1H-[1,2,4]triazol-3-yl]-azetidin-1-ylmethyl}-phenyl)-2-methylsulfanyl-6-phenyl-[1,2,4]triazolo[1,5-a]pyrimidine] are 5 nM and 4 nM.
For `CC(C)Nc1c(-c2ccccc2)c(-c2ccc(CN3CC(c4n[nH]c(-c5ccccn5)n4)C3)cc2)nc2nccn12` [Example 66.0, isopropyl-(6-phenyl-7-{4-{3-[5-(pyridine-2-yl)-1H-[1,2,4]triazole-3-yl)-azetidine-1-ylmethyl]-phenyl}-imidazo[1,2-a]pyrimidin-5-yl)-amine], the IC50 in series [1] was 25 nM; in series [2], 53 nM.

Values taken from patent US8957064B2, “Fused pyrimidines” (Bayer Intellectual Property GmbH, priority 2009, dated 2015).
